{"source": "patent US11485745B2", "about": "“Amido spirocyclic amide and sulfonamide derivatives” (Valo Health, Inc., priority 2012, dated 2022)"}
{"system": "A2780 cells", "assay": "In-Vitro Cell Proliferation Assay (A2780, sulforhodamine B, 72 hours)", "assay_type": "cell-based", "conditions": "Homo sapiens, A2780, 72 h, SRB", "units": {"IC50": "nM"}}
{"smiles": "CC(C)(O)COCC(=O)N1CCC2(CC1)CC2CNC(=O)N1Cc2ccncc2C1", "note": "(stereo not drawn) [Example 393, N-[[6-[2-(2-hydroxy-2-methyl-propoxy)acetyl]-6-azaspiro[2.5]octan-2-yl]methyl]-1,3-dihydropyrrolo[3,4-c]pyridine-2-carboxamide]", "IC50": 18.5}
{"smiles": "CC(C)(C)CS(=O)(=O)N1CCC2(CC1)CC2CNC(=O)N1Cc2ccncc2C1", "note": "(stereo not drawn) [Example 381, N-[[6-(2,2-dimethylpropylsulfonyl)-6-azaspiro[2.5]octan-2-yl]methyl]-1,3-dihydropyrrolo[3,4-c]pyridine-2-carboxamide]", "IC50": 55.4}
{"smiles": "CC(C)C(=O)N1CCC2(CC1)CC2CNC(=O)c1cc2cnccc2[nH]1", "note": "(stereo not drawn) [Example 12]", "IC50": 2000}
{"smiles": "O=C(NCC1CC12CCN(C(=O)c1cc(C(F)(F)F)[nH]n1)CC2)N1Cc2ccncc2C1", "note": "(stereo not drawn) [Example 396, N-[[6-[5-(trifluoromethyl)-1H-pyrazole-3-carbonyl]-6-azaspiro[2.5]octan-2-yl]methyl]-1,3-dihydropyrrolo[3,4-c]pyridine-2-carboxamdie]", "IC50": 17.5}
{"smiles": "O=C(CCC1CCCCC1)N1CCC2(CC1)CC2CNC(=O)N1Cc2ccncc2C1", "note": "(stereo not drawn) [Example 197, N-[[6-(3-cyclohexylpropanoyl)-6-azaspiro[2.5]octan-2-yl]methyl]-1,3-dihydropyrrolo[3,4-c]pyridine-2-carboxamide]", "IC50": 9.61}
{"smiles": "CC1(C)CC1C(=O)N1CCC2(CC1)CC2CNC(=O)N1Cc2ccncc2C1", "note": "(stereo not drawn) [Example 377, N-[[6-(2,2-dimethylcyclopropanecarbonyl)-6-azaspiro[2.5]octan-2-yl]methyl]-1,3-dihydropyrrolo[3,4-c]pyridine-2-carboxamide]", "IC50": 1.59}
{"smiles": "CC(C)(C)CS(=O)(=O)N1CCC2(CC1)CC2CNC(=O)c1cc2ccncc2[nH]1", "note": "(stereo not drawn) [Example 379, N-[[6-(2,2-dimethylpropylsulfonyl)-6-azaspiro[2.5]octan-2-yl]methyl]-1H-pyrrolo[3,2-c]pyridine-2-caarboxamide]", "IC50": 2000}
{"smiles": "CC(C)(O)CCC(=O)N1CCC2(CC1)CC2CNC(=O)N1Cc2ccncc2C1", "note": "(stereo not drawn) [Example 360, N-[[6-(4-hydroxy-4-methyl-pentanoyl)-6-azaspiro[2.5]octan-2-yl]methyl]-1,3-dihydropyrrolo[3,4-c]pyridine-2-carboxamide]", "IC50": 50.9}
{"smiles": "CN(C)Cc1ccc(C(=O)N2CCC3(CC2)CC3CNC(=O)c2cc3ccncc3o2)cc1", "note": "(stereo not drawn) [Example 71, N-[[6-[4-[(dimethylamino)methyl]benzoyl]-6-azaspiro[2.5]octan-2-yl]methyl]furo[2,3-c]pyridine-2-carboxamide]", "IC50": 13.7}
{"smiles": "CCC(=O)N1CCC2(CC1)CC2CNC(=O)c1cc2cnccc2[nH]1", "note": "(stereo not drawn) [Example 20]", "IC50": 2000}
{"smiles": "CCS(=O)(=O)N1CCC2(CC1)CC2CNC(=O)c1cc2cnccc2[nH]1", "note": "(stereo not drawn) [Example 14, N-[(8-ethylsulfonyl-8-azasprio[2.5]octan-2-yl)methyl]-1H-pyrrolo[3,2-c]pyridine-2-carboxamide]", "IC50": 2000}
{"smiles": "O=C(CCc1ccccc1)N1CCC2(CC1)CC2CNC(=O)N1Cc2ccncc2C1", "note": "(stereo not drawn) [Example 199, N-[[6-(3-phenylpropanoyl)-6-azaspiro[2.5]octan-2-yl]methyl]-1,3-dihydropyrrolo[3,4-c]pyridine-2-carboxamide]", "IC50": 184}
{"smiles": "O=C(CCc1cccnc1)N1CCC2(CC1)CC2CNC(=O)N1Cc2ccncc2C1", "note": "(stereo not drawn) [Example 209, N-[[6-[3-(3-pyridyl)propanoyl]-6-azaspiro[2.5]octan-2-yl]methyl]-1,3-dihydropyrrolo[3,4-c]pyridine-2-carboxamide]", "IC50": 203}
{"smiles": "CC(C)(O)COC(=O)N1CCC2(CC1)CC2CNC(=O)c1cc2cnccc2[nH]1", "note": "(stereo not drawn) [Example 401, (2-hydroxy-2-methyl-propyl) 2-[(1H-pyrrolo[3,2-c]pyridine-2-carbonylamino)methyl]-6-azaspiro[2.5]octane-6-carboxylate]", "IC50": 2000}
{"system": "A2780 cells", "assay": "In-Vitro Cell Proliferation Assay (A2780, sulforhodamine B, 72 hours)", "assay_type": "cell-based", "conditions": "SRB", "units": {"IC50": "nM"}}
{"smiles": "CC1(C)CC1C(=O)N1CCC2(CC1)CC2CNC(=O)c1cc2ccncc2o1", "note": "(stereo not drawn) [Example 373, N-[[6-(2,2-dimethylcyclopropanecarbonyl)-6-azaspiro[2.5]octan-2-yl]methyl]furo[2,3-c]pyridine-2-carboxamide]", "IC50": 7.03}
